# Reference: patent publication US12139475B2, “2-oxindole compounds” (CHEMOCENTRYX, INC., priority 2016, dated 2024)
# Target: T1, CCR(9) (Homo sapiens, UniProt P51686)
# T1 construct: MOLT-4 cells were collected by centrifugation at 400×g at room temperature, then suspended at 50 million/ml in human serum; host or cells: MOLT-4
# T1 sequence (P51686 1-369): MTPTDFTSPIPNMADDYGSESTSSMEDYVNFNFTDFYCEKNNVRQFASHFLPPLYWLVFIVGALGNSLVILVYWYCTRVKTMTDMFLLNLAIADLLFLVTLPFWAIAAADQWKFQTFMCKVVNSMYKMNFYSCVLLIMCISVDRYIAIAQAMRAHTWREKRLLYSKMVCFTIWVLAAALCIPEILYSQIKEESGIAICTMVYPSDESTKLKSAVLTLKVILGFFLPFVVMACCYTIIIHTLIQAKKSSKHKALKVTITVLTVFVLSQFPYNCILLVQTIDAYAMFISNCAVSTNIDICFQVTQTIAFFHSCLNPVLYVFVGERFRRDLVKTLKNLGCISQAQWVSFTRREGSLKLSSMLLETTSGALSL
# Assay: Serum chemotaxis assay (MOLT-4 cells, TECK-induced migration, ChemoTX)
# Assay type: cell-based
# Conditions: MOLT-4 cells in human serum, migration to recombinant human TECK, 90 minutes at 37° C.
# Description: MOLT-4 cells were obtained from the American Type Culture Collection (Manassas, VA) and cultured in RPMI tissue culture medium supplemented with 10% fetal calf serum (FCS) in a humidified 5% CO2 incubator at 37° C. Recombinant human chemokine proteins TECK was obtained from R&D Systems (Minneapolis, MN). ChemoTX™ chemotaxis microchambers were purchased from Neuro Probe (Gaithersburg, MD). CyQUANT™ cell proliferation kits were purchased from Molecular Probes (Eugene, Oregon). Calcium indicator dye Fluo-4 AM was purchased from Molecular Devices (Mountain View, CA).
# A serum chemotaxis assay was used to determine the efficacy of potential receptor antagonists at blocking the migration mediated through chemokine receptors, such as CCR(9). This assay was performed using the ChemoTX® microchamber system with a 5-μm pore-sized polycarbonate membrane. MOLT-4 cells were collected by centrifugation at 400×g at room temperature, then suspended at 50 million/ml in human serum, containing 50 mM HEPES (final pH of 7.2). The compound being tested or an equivalent volume of its solvent (DMSO) was then added to the cell/serum mixture at a final DMSO concentration of 0.125% (v/v), and this mixture was then incubated together at 37° C. for one hour. Separately, recombinant human TECK was diluted with chemotaxis buffer (HBSS+0.1% BSA), generally spanning a range from 0.1 nM to 500 nM, after which 29 μl of diluted chemokine was placed in the lower wells of the ChemoTX® plate. The 5-μm (pore size) polycarbonate membrane was placed onto the plate, and 20 μL of the cell/compound mixture was transferred onto each well of the membrane. The plates were incubated at 37° C. for 90 minutes, after which the polycarbonate membranes were removed and 5 μl of the DNA-intercalating agent CyQUANT (Invitrogen, Carlsbad, CA) was added to the lower wells. The amount of fluorescence, corresponding to the number of migrated cells, was measured using a Spectrafluor Plus plate reader (TECAN, San Jose, CA).
# The A2 values were calculated from the following equation, comparing the efficacy of the test compound with that of the DMSO-only control at equi-active chemokine levels: Log(A2)=log[drug(M)]−log[(A′/A)−1] where A reflects the potency of the agonist in the absence of antagonist and A′ reflects the potency of the agonist in the presence of antagonist at a given concentration of drug ([drug(M)]). In Vivo Efficacy Models for Human IBD
row,SMILES,Chemotaxis A2
1,Cc1ccc2c(c1)N(c1ccc(C(=O)O)cc1)C(=O)C2(C)c1ccc(C(C)(C)C)cc1 (stereo not shown),++ (500 nM > A2 ≥ 100 nM)
2,CC(C)(C)c1ccc(C2(C)C(=O)N(c3cccc(C(=O)O)c3)c3cc(Cl)ccc32)cc1 (stereo not shown),++ (500 nM > A2 ≥ 100 nM)
3,CC(C)Oc1ccc(C2(C)C(=O)N(c3cccc(C(=O)O)c3)c3ccc(Cl)cc32)cc1 (stereo not shown),+++ (100 nM > A2)
4,CC(C)(C)c1ccc(C2(C)C(=O)N(c3cccc(C(=O)O)c3)c3c(Cl)cc(Cl)cc32)cc1 (stereo not shown),+ (20000 nM ≥ A2 ≥ 500 nM)
5,Cc1ccc2c(c1)C(C)(c1ccc(C(C)(C)C)c(F)c1)C(=O)N2c1cccc(C(=O)O)c1 (stereo not shown),+++ (100 nM > A2)
6,CC(C)(C)c1ccc(C2(C)C(=O)N(c3cccc(C(=O)O)c3)c3cc(Cl)ccc32)cc1F (stereo not shown),+ (20000 nM ≥ A2 ≥ 500 nM)
7,CC(C)(C)c1ccc(C2(C)C(=O)N(c3ccc(C(=O)O)c(F)c3)c3ccc(Cl)cc32)cc1 (stereo not shown),++ (500 nM > A2 ≥ 100 nM)
8,CC(C)(C)c1ccc(C2(C)C(=O)N(c3cc(F)cc(C(=O)O)c3)c3ccc(Cl)cc32)cc1 (stereo not shown),+++ (100 nM > A2)
9,Cc1ccc2c(c1)N(c1cccc(C(=O)O)c1)C(=O)C2(C)c1ccc(C(C)(C)C)cc1 (stereo not shown),++ (500 nM > A2 ≥ 100 nM)
10,CC(C)(C)c1ccc(C2(C)C(=O)N(c3ccnc(C(=O)O)c3)c3ccc(Cl)cc32)cc1 (stereo not shown),++ (500 nM > A2 ≥ 100 nM)
11,CC(C)(C)c1ccc(C2(C)C(=O)N(c3cncc(C(=O)O)c3)c3ccc(Cl)cc32)cc1 (stereo not shown),++ (500 nM > A2 ≥ 100 nM)
12,CC(C)(C)c1ccc(C2(C)C(=O)N(c3cc(C(=O)O)ccn3)c3ccc(Cl)cc32)cc1 (stereo not shown),+++ (100 nM > A2)
13,CC(C)(C)c1ccc(C2(C)C(=O)N(c3cccc(C(=O)O)n3)c3ccc(Cl)cc32)cc1 (stereo not shown),++ (500 nM > A2 ≥ 100 nM)
14,CC1(c2ccc(Cl)cc2)C(=O)N(c2cccc(C(=O)O)c2)c2ccc(Cl)cc21 (stereo not shown),+ (20000 nM ≥ A2 ≥ 500 nM)
15,COc1ccc(C2(C)C(=O)N(c3cccc(C(=O)O)c3)c3ccc(Cl)cc32)cc1F (stereo not shown),+ (20000 nM ≥ A2 ≥ 500 nM)
16,CC(C)(O)c1ccc(C2(C)C(=O)N(c3cccc(C(=O)O)c3)c3ccc(Cl)cc32)cc1 (stereo not shown),++ (500 nM > A2 ≥ 100 nM)

row,SMILES,Chemotaxis A2
1,CC(C)(C)c1ccc(C2(C)C(=O)N(c3ccc(C(=O)O)cc3F)c3ccc(Cl)cc32)cc1 (stereo not shown),++ (500 nM > A2 ≥ 100 nM)
2,CC1(c2ccc(C(C)(O)C(F)(F)F)cc2)C(=O)N(c2cccc(C(=O)O)c2)c2ccc(Cl)cc21 (stereo not shown),++ (500 nM > A2 ≥ 100 nM)
3,CC1(c2ccc(C3(C(F)(F)F)CC3)cc2)C(=O)N(c2cccc(C(=O)O)c2)c2ccc(Cl)cc21 (stereo not shown),+++ (100 nM > A2)
4,CC1(c2ccc(C3(C#N)CC3)cc2)C(=O)N(c2cccc(C(=O)O)c2)c2ccc(Cl)cc21 (stereo not shown),++ (500 nM > A2 ≥ 100 nM)
5,CC1(c2ccc(C(C)(C)C(C)(F)F)cc2)C(=O)N(c2cccc(C(=O)O)c2)c2ccc(Cl)cc21 (stereo not shown),+ (20000 nM ≥ A2 ≥ 500 nM)
6,CC1(C)CCc2cc(C3(C)C(=O)N(c4cccc(C(=O)O)c4)c4ccc(OC(F)(F)F)cc43)ccc2O1 (stereo not shown),+++ (100 nM > A2)
7,CC1(C)CCc2cc(C3(C)C(=O)N(c4cccc(C(=O)O)c4)c4ccc(C#N)cc43)ccc2O1 (stereo not shown),+++ (100 nM > A2)
8,CCc1ccc2c(c1)C(C)(c1ccc3c(c1)CCC(C)(C)O3)C(=O)N2c1cccc(C(=O)O)c1 (stereo not shown),+++ (100 nM > A2)
9,Cc1cc(C2(C)C(=O)N(c3cccc(C(=O)O)c3)c3ccc(Cl)cc32)ccc1C(C)(C)C (stereo not shown),++ (500 nM > A2 ≥ 100 nM)
10,CC1(C)CCc2cc(C3(C)C(=O)N(c4cccc(C(=O)O)c4)c4cc(Cl)c(OC(F)(F)F)cc43)ccc2O1 (stereo not shown),+++ (100 nM > A2)
11,CC1(C)CCc2cc(C3(C)C(=O)N(c4cccc(C(=O)O)c4)c4cc(Cl)c(Cl)cc43)ccc2O1 (stereo not shown),+++ (100 nM > A2)
12,COc1ccc(C(=O)O)c(CN2C(=O)[C@@](C)(c3ccc4c(c3)CCC(C)(C)O4)c3cc(Cl)ccc32)c1,+++ (100 nM > A2)
13,CC1(C)CCc2cc([C@]3(C)C(=O)N(c4cc(C#N)cc(C(=O)O)c4)c4ccc(Cl)cc43)ccc2O1,++ (500 nM > A2 ≥ 100 nM)
14,"CC1(C)CCc2cc(C3(C)C(=O)N(c4ccc(CC(=O)O)cc4)c4ccc(Cl)cc43)ccc2O1 (stereo in doubt) [2-[4-[(3R)-5-chloro-3-(2,2-dimethylchroman-6-yl)-3-methyl-2-oxo-indolin-1-yl]phenyl]acetic acid]",+++ (100 nM > A2)
15,"Cc1ccc2c(c1)C(C)(c1ccc3c(c1)CCC(C)(C)O3)C(=O)N2c1ccc(C)c(C(=O)O)c1 (stereo in doubt) [5-[(3R)-3-(2,2-dimethylchroman-6-yl)-3,5-dimethyl-2-oxo-indolin-1-yl]-2-methyl-benzoic acid]",+++ (100 nM > A2)
16,"COc1ccc(N2C(=O)C(C)(c3ccc4c(c3)CCC(C)(C)O4)c3cc(Cl)ccc32)cc1C(=O)O (stereo in doubt) [5-[(3R)-5-chloro-3-(2,2-dimethylchroman-6-yl)-3-methyl-2-oxo-indolin-1-yl]-2-methoxy-benzoic acid]",+++ (100 nM > A2)

# Results, then the compound that gave them:
row,Chemotaxis A2,SMILES
1,+++ (100 nM > A2),CC(C)(C)c1ccc(C2(C)C(=O)N(c3ccc(C(=O)O)cc3)c3ccc(Cl)cc32)cc1 (stereo not shown)
2,+++ (100 nM > A2),Cc1cc(C(C)(C)C)ccc1C1(C)C(=O)N(c2cccc(C(=O)O)c2)c2ccc(Cl)cc21 (stereo not shown)
3,++ (500 nM > A2 ≥ 100 nM),CC(C)(C)c1ccc(C2(C)C(=O)N(c3ccccc3C(=O)O)c3ccc(Cl)cc32)cc1 (stereo not shown)
4,+++ (100 nM > A2),CC(C)Oc1ccc(C2(C)C(=O)N(c3ccc(C(=O)O)cc3)c3ccc(Cl)cc32)cc1 (stereo not shown)
5,++ (500 nM > A2 ≥ 100 nM),Cc1ccc2c(c1)N(c1cccc(C(=O)O)c1)C(=O)C2(C)c1ccc(C(C)(C)C)c(F)c1 (stereo not shown)
6,++ (500 nM > A2 ≥ 100 nM),CC(C)(C)c1ccc(C2(C)C(=O)N(c3cc(C(=O)O)ccc3F)c3ccc(Cl)cc32)cc1 (stereo not shown)
7,+++ (100 nM > A2),CC(C)(C)c1ccc(C2(C)C(=O)N(c3cccc(C(=O)O)c3F)c3ccc(Cl)cc32)cc1 (stereo not shown)
8,++ (500 nM > A2 ≥ 100 nM),CC(C)(F)c1ccc(C2(C)C(=O)N(c3cccc(C(=O)O)c3)c3ccc(Cl)cc32)cc1 (stereo not shown)
9,+++ (100 nM > A2),CC(C)(C)c1ccc(C2(C)C(=O)N(c3cccc(C(=O)O)c3)c3ccc(OC(F)(F)F)cc32)cc1 (stereo not shown)
10,+++ (100 nM > A2),CC1(c2ccc(C3(C)C(=O)N(c4cccc(C(=O)O)c4)c4ccc(Cl)cc43)cc2)CC1 (stereo not shown)
11,++ (500 nM > A2 ≥ 100 nM),Cc1cc(C2(C)C(=O)N(c3cccc(C(=O)O)c3)c3ccc(Cl)cc32)ccc1OC(C)C (stereo not shown)
12,+++ (100 nM > A2),CC1(C)CCc2cc(C3(C)C(=O)N(c4cccc(C(=O)O)c4)c4ccc(C5CC5)cc43)ccc2O1 (stereo not shown)
13,+++ (100 nM > A2),CC1(C)Cc2cc(C3(C)C(=O)N(c4cccc(C(=O)O)c4)c4ccc(Cl)cc43)ccc2O1 (stereo not shown)
14,+++ (100 nM > A2),COc1c(C)cc(N2C(=O)[C@@](C)(c3ccc4c(c3)CCC(C)(C)O4)c3cc(Cl)ccc32)cc1C(=O)O
15,+++ (100 nM > A2),CC(C)(C)c1ccc(C2(C)C(=O)N(c3cccc(C(=O)O)c3)c3ccc(Cl)cc32)cc1 (stereo in doubt) [3-[(3R)-3-(4-tert-butylphenyl)-5-chloro-3-methyl-2-oxo-indolin-1-yl]benzoic acid]
16,+++ (100 nM > A2),"CC1(C)CCc2cc(C3(C)C(=O)N(c4cccc(C(=O)O)c4)c4ccc(Cl)cc43)ccc2O1 (stereo in doubt) [3-[(3R)-5-chloro-3-(2,2-dimethylchroman-6-yl)-3-methyl-2-oxo-indolin-1-yl]benzoic acid]"
17,+++ (100 nM > A2),"CC1(C)CCc2cc(C3(C)C(=O)N(Cc4ccc(C(=O)O)cc4)c4ccc(Cl)cc43)ccc2O1 (stereo in doubt) [4-[[(3R)-5-chloro-3-(2,2-dimethylchroman-6-yl)-3-methyl-2-oxo-indolin-1-yl]methyl]benzoic acid]"
